Test results reported in PubChem BioAssay AID1250 (SRMLSC, 2008).
The source made the active and inactive calls.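 How the source made its calls: active means inhibition of at least 30% at one or more tested concentrations; inactive means inhibition below 30% at every dose.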

Experiment: inhibitors of Bluetongue virus cytopathic effect, confirmation, arbovirus, BSR cells (AID 1250)
Details: BSR cells, Bluetongue virus CPE, ATP luminescence, 72 h; at 20 µM (top of the series)

Compound	CPE inhibition
CCOC(=O)c1c(NC(=O)CSc2ncn[nH]2)sc(C)c1C	21% (inactive)
O=c1oc(-c2ccccc2NS(=O)(=O)c2ccc3ccccc3c2)nc2ccccc12	10.9% (inactive)
Clc1cccc(-c2cc3nc4c(c(NCc5ccco5)n3n2)CCCC4)c1	10.7% (inactive)
CCOc1ccc2nc(NC(=O)C3CCN(S(=O)(=O)c4cnc[nH]4)CC3)sc2c1	11.9% (inactive)
O=C(O)c1cccc(-n2cccc2/C=C2/NC(=O)N(c3ccc(Cl)cc3)C2=O)c1	10.4% (inactive)
CCn1nc(C)c(NC(=O)Nc2cccc(Cl)c2Cl)c1C	2.62% (inactive)
OCCNc1nc(Nc2ccccc2)nc2ccccc12	15.3% (inactive)
CCn1c(COc2cccc3ccccc23)nnc1SCC(=O)OC1CCCCC1	2.2% (inactive)
COc1ccc(-c2noc(-c3ccccc3-c3ccccc3)n2)cc1OC	10.8% (inactive)
C=CCn1c(N)c(C(=O)NCc2cccnc2)sc1=S	2.55% (inactive)
C/C=C/c1ccc(OCCCCOc2ccccc2C(C)=O)c(OC)c1	11.9% (inactive)
CSC1=NSC2=NC(=O)/C(=C\c3cccs3)C(=N)N12	16% (inactive)
COc1ccc(Br)cc1CN(C)CC(=O)Nc1c(Cl)cccc1Cl	28.5% (inactive)
COc1cc2c(C(=O)O)c(C)n(CC(C)C)c2c2ccccc12	28.1% (inactive)
CN(c1ccccc1)c1ccc(/C=C(\CCC(=O)O)c2nc3ccccc3s2)cc1[N+](=O)[O-]	21.4% (inactive)
CCOc1cccc(C(=O)Nc2ccccc2N2CCN(C(=O)C(C)C)CC2)c1	9.61% (inactive)
CCc1ccc(S(=O)(=O)c2ccc(-n3nc(C)cc3N)cc2)cc1	6.14% (inactive)
CCCC1=NN2C(=N)/C(=C\c3cc(C)n(-c4cccc(C)c4)c3C)C(=O)N=C2S1	24% (inactive)
O=c1[nH]c(=O)n(C(c2ccccc2)c2ccccc2)cc1Br	18.7% (inactive)

Compound	CPE inhibition
CC(C)n1c(NCCc2ccccc2)nc2c1c(=O)n(C)c(=O)n2C	7.91% (inactive)
CCOc1ccc2nc(NC(=O)C3=NN(c4ccccc4)C(=O)CC3)sc2c1	25% (inactive)
COc1cc(/C=C/C(=O)Nc2nnc(C(C)(C)C)s2)cc(OC)c1OC	11.5% (inactive)
CCN=c1scc(C)n1/N=C/c1cc(Br)c(O)c(Br)c1	-2.38% (inactive)
COc1ccc(-c2csc(NC(=O)Cc3cccc4ccccc34)c2C(=O)O)cc1	24.9% (inactive)
Cc1nnc2sc(SCc3cccc(Cl)c3)nn2c1=O	14.2% (inactive)
Brc1ccccc1-c1nnc(SCc2nc3ccccc3s2)o1	0.37% (inactive)
CC(C)Oc1cccc(C(=O)NC(=S)Nc2ccccc2)c1	6.77% (inactive)
O=[N+]([O-])c1cccc(/C=N\N=C2c3ccccc3-c3ccccc32)c1O	22.2% (inactive)
O=C(CSc1nnc(NC(=O)c2c(F)cccc2F)s1)Nc1ccc(F)cc1	3.41% (inactive)
COCC(C)n1c(SCc2nc3ccccc3c(=O)[nH]2)nc2ccccc2c1=O (stereo not drawn)	29.9% (inactive)
COc1ccccc1N1CCN(Cc2ccc(OC)c3ccccc23)CC1	11.1% (inactive)
O=C(NC1CCN(Cc2ccccc2)CC1)c1cccc(S(=O)(=O)Nc2cc(C(F)(F)F)ccc2Cl)c1	21.7% (inactive)
Brc1ccccc1/C=N/Nc1ccc2ccccc2n1	14.7% (inactive)
C=CCOc1c(Br)cc(/C=N/Nc2ccc(C(=O)O)cc2)cc1OCC	14.1% (inactive)
O=C(O)c1cnc(-c2ccccc2)nc1Sc1ccc(Cl)cc1	15.2% (inactive)
Cc1cccc(CSc2nn3c(=O)c(C)nnc3s2)c1	19.1% (inactive)
CSc1nsc2nc(=O)c(/C=C3\C(C)=Nc4ccccc43)c(N)n12	23% (inactive)
O=C(O)c1ccccc1N/N=C\c1ccnc2ccccc12	12.3% (inactive)
